One assay addresses T1, KAT6A (Homo sapiens, UniProt Q92794).
T1 construct: His-TEV tag (N, cleaved yes); made in house
The assay can be described thus: KAT6A enzyme inhibition assay (SAMDI mass spectrometry). It counts as biochemical. As to conditions: His-TEV-KAT6A 501-784 enzyme construct.

A further assay has as its target T2, KAT5 (Homo sapiens, UniProt Q92993).
T2 construct: His-TEV tag (N, cleaved yes); made in house
The assay can be described thus: KAT5 enzyme inhibition assay (SAMDI mass spectrometry). It counts as biochemical. As to conditions: His-TEV-FL KAT5-Flag enzyme construct.

As a reminder, the pIC50 is the IC50 on a negative log10 scale, so that one unit is a factor of ten.

Molecules are shown by their SMILES. pIC50: −log10 of the molar value. Where only a bound is given, the exact number is not on record here.

T2 sequence (Q92993 with tags, fused parts or gaps): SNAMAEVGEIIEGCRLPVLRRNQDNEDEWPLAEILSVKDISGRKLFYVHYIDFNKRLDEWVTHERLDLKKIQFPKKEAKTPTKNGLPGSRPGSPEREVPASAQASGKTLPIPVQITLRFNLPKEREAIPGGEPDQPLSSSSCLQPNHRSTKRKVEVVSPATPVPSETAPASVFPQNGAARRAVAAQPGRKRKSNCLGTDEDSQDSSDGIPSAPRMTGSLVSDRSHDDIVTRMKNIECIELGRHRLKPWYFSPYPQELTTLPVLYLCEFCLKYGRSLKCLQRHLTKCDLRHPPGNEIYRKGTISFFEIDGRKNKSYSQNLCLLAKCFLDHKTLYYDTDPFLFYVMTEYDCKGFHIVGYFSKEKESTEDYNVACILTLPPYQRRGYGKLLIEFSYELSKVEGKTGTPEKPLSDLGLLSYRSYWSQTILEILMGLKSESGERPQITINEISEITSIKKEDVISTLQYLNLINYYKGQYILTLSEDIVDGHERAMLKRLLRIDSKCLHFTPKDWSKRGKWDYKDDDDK
T1 sequence (Q92794 with tags, fused parts or gaps): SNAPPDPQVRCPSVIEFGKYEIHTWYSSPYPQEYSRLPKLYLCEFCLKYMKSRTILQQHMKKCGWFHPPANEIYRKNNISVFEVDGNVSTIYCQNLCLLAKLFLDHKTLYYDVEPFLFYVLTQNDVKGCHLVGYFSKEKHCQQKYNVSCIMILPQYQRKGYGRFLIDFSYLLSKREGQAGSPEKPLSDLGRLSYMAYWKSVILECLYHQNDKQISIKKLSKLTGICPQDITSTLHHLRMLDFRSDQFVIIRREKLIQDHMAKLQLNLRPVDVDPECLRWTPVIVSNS

Regarding `Cc1cc(-c2ccccc2)cc(C(=O)NNS(C)(=O)=O)c1F` [Compound I-1], the results for the pIC50 at KAT6A and at KAT5 were 4.30 to 5.00 and 4.00 to 4.30, respectively.
Take `CCS(=O)(=O)NNC(=O)c1cc(-c2ccccc2)cc(C)c1F` [Compound I-2]: the pIC50 at KAT6A and against KAT5 was 4.30 to 5.00 in each case.
Regarding `Cc1cc(-c2ccccc2)cc(C(=O)NNS(=O)(=O)C(C)C)c1F` [Compound I-3], the pIC50 against KAT6A is 4.00 to 4.30; against KAT5, 4.30 to 5.00.
Take `Cc1cc(-c2ccccc2)cc(C(=O)NNS(=O)(=O)C2CC2)c1F` [Compound I-4]: the pIC50 against KAT6A and on KAT5 was 4.00 to 4.30 throughout.
For `Cc1cc(-c2ccccc2)cc(C(=O)NNS(=O)(=O)Cc2cccc(Cl)c2)c1F` [Compound I-5], the pIC50 against KAT6A and against KAT5 was ≥ 5.00 throughout.
In the case of `Cc1cc(-c2ccccc2)cc(C(=O)NNS(=O)(=O)Cc2ccc(Cl)cc2)c1F` [Compound I-6], the pIC50 on KAT6A and on KAT5 was ≥ 5.00 in each case.
With `Cc1cc(-c2ccccc2)cc(C(=O)NNS(=O)(=O)C2CCC2)c1F` [Compound I-7], the pIC50 at KAT6A and on KAT5 was 4.30 to 5.00 in each case.
On to `Cc1cc(-c2ccccc2)cc(C(=O)NNS(=O)(=O)Cc2ccccc2Cl)c1F` [Compound I-8], for which the pIC50 at KAT6A and against KAT5 was ≥ 5.00 throughout.
On to `Cc1cc(-c2ccccc2)cc(C(=O)NNS(=O)(=O)Cc2ccccc2)c1F` [Compound I-9], for which the pIC50 at KAT6A and on KAT5 was ≥ 5.00 each time.
As to `O=C(NNS(=O)(=O)c1ccccc1)c1c(F)ccc(-c2ccccc2)c1F` [Compound I-10], the pIC50 at KAT6A and against KAT5 was < 4.00 each time.
In the case of `O=S(=O)(NNc1nc2ccccc2[nH]1)c1ccccc1` [Compound I-12], the pIC50 on KAT6A and on KAT5 was < 4.00 each time.
On to `Cn1c(NNS(=O)(=O)c2ccccc2)nc2ccccc21` [Compound I-13], for which the negative-log IC50 (pIC50) on KAT6A and on KAT5 was < 4.00 each time.
With `O=C(NNS(=O)(=O)c1ccccc1)c1cc(-c2ccccc2)cc2cc[nH]c12` [Compound I-14], the pIC50 on KAT6A and on KAT5 was 4.30 to 5.00 each time.
On to `CC1CCCC(C)N1C(=O)NNS(=O)(=O)c1ccccc1` (stereo not drawn) [Compound I-15], for which the pIC50 against KAT6A and at KAT5 was < 4.00 throughout.
`O=C(NNS(=O)(=O)c1ccccc1)c1cc(-c2ccccc2)cc2[nH]ccc12` [Compound I-16]: the pIC50 is 4.00 to 4.30 on KAT6A and < 4.00 at KAT5.
For the compound `O=C(NNS(=O)(=O)c1ccc2ccccc2c1)c1ccccc1` [Compound I-146], on KAT5, the pIC50 is < 4.00.
Turning to `Cc1cc(-c2ccccc2)cc(C(=O)NNS(=O)(=O)c2ccccc2)c1F` [Compound I-157], the pIC50 against KAT5 was ≥ 5.00.
On the same count and under the same terms, the same measure for `O=C(NNS(=O)(=O)c1ccccc1F)c1ccccc1` [Compound I-163]: < 4.00.
As to `COc1ccc(S(=O)(=O)NNC(=O)c2ccccc2F)cc1` [Compound I-179], the pIC50 against KAT5 is < 4.00.
Take `O=C(NNS(=O)(=O)c1ccccc1)c1ccc(Cl)cc1` [Compound I-181]: the negative logarithm of the IC50 (pIC50) at KAT5 is < 4.00.
In the case of `COc1cccc(C(=O)NNS(=O)(=O)c2ccccc2)c1` [Compound I-182], at KAT5, the pIC50 is < 4.00.
On to `O=C(NNS(=O)(=O)c1ccccc1)c1cccc(F)c1` [Compound I-191], for which, at KAT5, the pIC50 is < 4.00.
For `Cc1cc(-c2ccccc2)cc(C(=O)NNS(=O)(=O)c2cccc(C3CC3)c2)c1F` [Compound I-201], the pIC50 at KAT5 was < 4.00.
On the same count and under the same terms, the same measure for `Cc1cc(-c2ccccc2)cc(C(=O)NNS(=O)(=O)c2cccc(C(C)C)c2)c1F` [Compound I-218]: < 4.00; for `O=C(NNS(=O)(=O)c1ccc2ccccc2c1)c1ccccc1F` [Compound I-238]: 4.00 to 4.30; for `O=C(NNS(=O)(=O)CC1CCOCC1)c1cc(C2CCCO2)cc(Cl)c1F` (stereo not drawn) [Compound I-506]: ≥ 5.00.
On the same count and under the same terms, the same measure for `CC(C)n1nc(CNC(=O)CNS(=O)(=O)c2ccccc2)c2ccccc21` [Compound I-525]: < 4.00.

The record behind these values is patent US20220267260A1, “COMPOUNDS CONTAINING A SULFONIC GROUP AS KAT INHIBITORS” (Epizyme, Inc., priority 2016, published 2022).
